In assay [1] the test system is Bacteroides fragilis strains. Nature of the assay: in vitro minimum inhibitory concentration against Bacteroides fragilis strains. The format is cell-based. As for the experimental part: (§1) In the case of in vitro experiments an minimum inhibitory concentration of 0.1-1.6 μg/ml has been determined for compound A against Bacteroides fragilis strains. […] In comparison to this, values of 79 and 45 μg/l, respectively, were determined for the known pyrimethamine.

Assay [2] has as its system P. falciparum. Nature of the assay: in vitro activity against malaria pathogen P. falciparum. It counts as cell-based. To be noted: Plasmodium falciparum. As for the experimental part:
as §1

Assay [3] deals with dihydrofolate reductase from E. coli (Escherichia coli, UniProt P0ABQ4). Nature of the assay: inhibition of dihydrofolate reductase from E. coli. It counts as biochemical.
The mark [4] stands for this setting: P. falciparum strain 13, read-out: ID50 (the source's name).
The mark [5] stands for this setting: P. falciparum strain T9, read-out: ID50 (the source's name).

≈ marks a conversion by molar mass, not a printed value. Read-outs that look alike come from different tables or passages of the source.

The MIC is the smallest concentration in the dilution series that meets the test's criterion for growth inhibition. `COc1cc(OC)cc(N2[C@@H]3CC[C@H]2C[C@H](c2cnc(N)nc2N)C3)c1` [compound A, exo-2,4-diamino-5-[8-(3,5-dimethoxyphenyl)-8-azabicyclo[3.2.1]oct-3-yl]pyrimidine] showed a minimal inhibitory concentration (MIC) in assay [1] of 0.1 to 1.6 µg/mL (≈ 0.281 to 4.5 µM). Moreover, the figures for the IC50 in assay [2] (setting [4]), in assay [2] (setting [5]) and in assay [3] were 0.0009 µg/mL (≈ 0.00253 µM), 0.0014 µg/mL (≈ 0.00394 µM) and 3.3 nM, respectively.
Take `CCc1nc(N)nc(N)c1-c1ccc(Cl)cc1` [pyrimethamine, reference compound]: the IC50 came out at 0.045 µg/mL (≈ 0.181 µM) in assay [2] (setting [4]) and 0.079 µg/mL (≈ 0.318 µM) in assay [2] (setting [5]).

(Values after patent US4590270A, “2,4-diamino-[4-piperidinyl]pyrimidines useful as antibacterial agents, antimalarial agents, antitumors agents” (Hoffmann-La Roche Inc., priority 1983, dated 1986).)
